Results on nine compounds are retold here after patent US20250319056A1, “METHODS FOR TREATING CANCER” (THE TRUSTEES OF INDIANA UNIVERSITY, priority 2024, published 2025).

One may read the GI50 as the concentration at which growth is held to half of that of the control. Low readings indicate more potent growth inhibition, high ones less potent growth inhibition. The term EC50 denotes the concentration at which the effect is half-maximal. A word on the CC50: it is the concentration giving 50% cytotoxicity.

Series [1] relates to NCI-60 cancer cell panel. The series is described as follows: NCI-60 panel dose-response cell growth testing. The series is classed as cell-based. As to conditions: follow-up dose response, range across NCI-60 cell lines. From the text:
FIGS. 11A-11G show cell growth results in dose-response for 7 lead candidate inhibitors (compound 162, FIG. 11A; compound 164, FIG. 11B; compound 128, FIG. 11C compound 165, FIG. 11D; compound 139, FIG. 11E; compound 143, FIG. 11F; compound 147, FIG. 11G) from initial single-dose NCI-60 screen.
Therefore, they appeared to act in a cytocidal manner.

The subject of series [2] is NCI-60 cancer cell panel. The series is described as follows: NCI-60 panel single-dose cell growth screen. It counts as cell-based. As to conditions: single dose 10 μM; 0 = cytostatic, -100% = cytocidal, +100% = growth. The method, then: FIGS. 10A-10J show cell growth results for 10 lead candidate inhibitors (compound 162, FIG. 10A; compound 163, FIG. 10B; compound 164, FIG. 10C; compound 4, FIG. 10D; compound 165, FIG. 10E; compound 139, FIG. 10F; compound 132, FIG. 10G; compound 143, FIG. 10H; compound 147, FIG. 10I; compound 128, FIG. 10J) tested at 10 μM against the NCI cancer cell panel. Zero indicates no cells growth/death from what was initially plated (cytostatic inhibition). −100% indicates […] (cytocidal inhibition). +100% indicates cell growth.
In a previous study evaluating the anti-cancer effects of ABK inhibitors, the National Cancer Institute (NCI) database was explored for existing cytotoxicity results for any compounds bearing α,β-unsaturated ketone moieties against the comprehensive NCI-60 cancer cell panel. […] The HQ-NAH and NF-NAH inhibitor library was explored based on the similarity to Nifuroxazide's scaffold. […] Initial screening was performed at a single concentration of 10 μM, and cell growth results are presented in aggregate based on cancer cell origin (FIGS. 10A-10J).

Another series has as its system HCT-116 cells. Nature of the series: AlamarBlue cell viability assay, HCT-116 colon cancer cells. It counts as cell-based, human. As to conditions: for Average Selectivity Index: CC50 non-cancer cells (FHC, FHs 74Int) compared to EC50 HCT-116; for EC50: Homo sapiens, HCT-116, 48 h, AlamarBlue, 48 h with compound, read-out: Human Cell Viability EC50 Colon Cancer (HCT 116). In general terms: The colour change of resazurin is a common sign of viable cells or microbes.

Series [3] in a line: AlamarBlue cell viability assay, non-cancerous colon FHC cells. As to conditions: human, FHC non-cancerous colon cells, Human Cell Viability CC50 Colon (FHC), non-cancerous colon cells, AlamarBlue, 48 h.
A short description of series [4]: AlamarBlue cell viability assay, non-cancerous intestine FHs-74Int cells. The following applies: human, FHs-74Int non-cancerous intestine cells, Human Cell Viability CC50 Intestine (FHs 74Int), non-cancerous intestine cells, AlamarBlue, 48 h.
The next series concerns DLD-1 cells. Nature of the series: AlamarBlue cell viability assay, DLD-1 colon cancer cells. The series is classed as cell-based. As to conditions: Homo sapiens, 48 h with compound, ^BP = curve baseline plateaued between ~10-20%, read-out: Human Cell Viability EC50 Colon Cancer (DLD1).
Another series has as its system HT-29 cells. The series is described as follows: AlamarBlue cell viability assay, HT-29 colon cancer cells. The series is classed as cell-based. As to conditions: Homo sapiens, 48 h with compound, ^BP = curve baseline plateaued between ~10-20%.
A further series deals with T1, GroEL/ES (Escherichia coli, UniProt P0A6F5).
T1 construct: made in house; host or cells: NEB 5-alpha E. coli for GroEL; E. coli BL21 (DE3) for GroES
T1 sequence (P0A6F5 2-548): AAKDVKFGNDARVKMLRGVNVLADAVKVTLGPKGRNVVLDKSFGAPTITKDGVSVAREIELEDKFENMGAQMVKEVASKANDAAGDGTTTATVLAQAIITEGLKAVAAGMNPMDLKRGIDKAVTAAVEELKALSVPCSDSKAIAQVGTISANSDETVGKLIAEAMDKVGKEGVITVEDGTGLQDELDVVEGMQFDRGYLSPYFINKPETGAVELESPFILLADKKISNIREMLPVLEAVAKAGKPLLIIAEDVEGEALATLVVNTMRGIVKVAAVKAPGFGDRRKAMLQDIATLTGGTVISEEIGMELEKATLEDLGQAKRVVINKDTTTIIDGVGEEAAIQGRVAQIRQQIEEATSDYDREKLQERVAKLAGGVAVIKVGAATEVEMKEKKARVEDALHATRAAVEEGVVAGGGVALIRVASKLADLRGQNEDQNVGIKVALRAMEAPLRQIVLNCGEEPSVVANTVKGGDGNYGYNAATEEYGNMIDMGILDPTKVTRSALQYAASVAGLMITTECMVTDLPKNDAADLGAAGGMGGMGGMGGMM
The series is described as follows: GroEL/ES-dMDH refolding assay. It counts as biochemical, E. coli.

A further series deals with T2, mHSP60/10 (Homo sapiens, UniProt P10809).
T2 construct: Processed human HSP60 (mHSP60—that would be in mitochondria) was expressed in Rosetta™ 2 (DE3) E. coli; octa-Histidine tag (TEV-cleavable) (N, cleaved yes); made in house; host or cells: E. coli Rosetta 2 (DE3) for mHSP60; Rosetta 2 (DE3) pLysS for HSP10
T2 sequence (P10809 27-573): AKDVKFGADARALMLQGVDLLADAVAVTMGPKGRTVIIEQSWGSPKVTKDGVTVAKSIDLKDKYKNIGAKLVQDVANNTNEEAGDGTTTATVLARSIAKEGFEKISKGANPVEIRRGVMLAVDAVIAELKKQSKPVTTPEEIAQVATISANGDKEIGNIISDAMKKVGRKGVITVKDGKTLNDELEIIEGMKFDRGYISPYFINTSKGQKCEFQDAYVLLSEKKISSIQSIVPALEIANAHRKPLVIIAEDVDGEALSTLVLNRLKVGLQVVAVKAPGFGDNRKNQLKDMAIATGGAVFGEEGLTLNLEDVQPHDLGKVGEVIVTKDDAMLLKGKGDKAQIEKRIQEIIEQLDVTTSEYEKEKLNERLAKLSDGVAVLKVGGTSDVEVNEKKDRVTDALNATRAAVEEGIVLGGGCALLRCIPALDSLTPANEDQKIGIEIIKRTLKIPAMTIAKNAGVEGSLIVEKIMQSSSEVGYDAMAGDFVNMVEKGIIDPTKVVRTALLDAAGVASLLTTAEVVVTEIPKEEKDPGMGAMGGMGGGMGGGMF
Nature of the series: mHSP60/10-mediated dMDH refolding assay. The series is classed as biochemical. As to conditions: denatured malate dehydrogenase client; read-out: IC50 mHSP60/10-dMDH refolding.

The subject of the next series is FHC cells. The series is described as follows: AlamarBlue cell viability assay, non-cancerous colon FHC cells. The following applies: read-out: Human Cell Viability CC50 Colon (FHC); non-cancerous colon cells, AlamarBlue, 48 h.
A further series relates to FHs-74Int cells. The series is described as follows: AlamarBlue cell viability assay, non-cancerous intestine FHs-74Int cells. As to conditions: read-out: Human Cell Viability CC50 Intestine (FHs 74Int); non-cancerous intestine cells, AlamarBlue, 48 h.

`O=C(Nc1ccc(Sc2nc3ccccc3s2)c(Cl)c1)c1cc(Br)ccc1O` [Compound 165, N-(4-(Benzo[d]thiazol-2-ylthio)-3-chlorophenyl)-5-bromo-2-hydroxybenzamide] yielded a GI50 in the series on NCI-60 cancer cell panel [1] of 1 to 5 µM. Also, the “cell growth % NCI cancer cell panel” value in the series with NCI-60 cancer cell panel [2] is on record as “negative % growth”.
As to `O=C(N/N=C/c1ccc(O)c2ncccc12)c1cccc(Oc2ccccc2)c1` [Compound 143, N′-((8-hydroxyquinolin-5-yl)methylene)-3-phenoxybenzohydrazide], in the series with HCT-116 cells, the “Average Selectivity Index” value is on record as 4.8 and the EC50 was determined as 6.5 µM. The CC50 at 48 h in [3] is 41 µM. Also, in the series with NCI-60 cancer cell panel [1], the GI50 lay within 0.2 to 0.4 µM. In addition, the midpoint of cytotoxicity in [4], the CC50 at 48 h, lay at 21 µM. Besides, the “cell growth % NCI cancer cell panel” value with NCI-60 cancer cell panel [2] is recorded as “negative % growth”.
On to `COc1ccccc1S(=O)(=O)Nc1ccc(-c2nc3cc(NS(=O)(=O)c4ccccc4OC)ccc3o2)cc1` [Compound 164, 2-methoxy-N-(4-(5-((2-methoxyphenyl)sulfonamido)benzo[d]oxazol-2-yl)phenyl)benzenesulfonamide], for which the GI50 with NCI-60 cancer cell panel [1] was 1 to 5 µM. In addition, the “cell growth % NCI cancer cell panel” value in the series with NCI-60 cancer cell panel [2] was “around 0%”.
As to `O=C(N/N=C/c1ccc([N+](=O)[O-])o1)c1cccc(Oc2ccccc2)c1` [Compound 128, N′-((5-nitrofuran-2-yl)methylene)-3-phenoxybenzohydrazide], the “Average Selectivity Index” value with HCT-116 cells is 17.4. The EC50 is 3.5 µM in the series with HCT-116 cells, 7.3 µM in the series on DLD-1 cells and 1.6 µM with HT-29 cells. Moreover, the CC50 at 48 h in [3] was found to be 61 µM; in series [4], 60 µM. Further, in the series with NCI-60 cancer cell panel [1], the GI50 is 1 to 31 µM. In addition, in the series on NCI-60 cancer cell panel [2], the “cell growth % NCI cancer cell panel” value was “a range of positive, negative, and zero growth”.
Consider `O=C(/C=C/c1cccc([N+](=O)[O-])c1)c1ccc(NC(=O)c2ccco2)cc1` [Compound 4, (E)-N-(4-(3-(3-nitrophenyl)acryloyl)phenyl)furan-2-carboxamide], for which the “Average Selectivity Index” value in the series with HCT-116 cells stood at 19.1. For the same compound, the EC50 stood at 4 µM in the series on HCT-116 cells, 39.7 µM in the series on DLD-1 cells and 3.6 µM with HT-29 cells. Further, the CC50 at 48 h in series [3] is above 100 µM; in [4], 54 µM. In addition, the IC50 on GroEL/ES and at mHSP60/10 was 0.8 to 9 µM each time. In addition, the “cell growth % NCI cancer cell panel” value in the series on NCI-60 cancer cell panel [2] is “largely inactive”.
Take `Cc1ccc(S(=O)(=O)Nc2ccc(-c3nc4cc(NS(=O)(=O)c5ccc(C)cc5)ccc4o3)cc2)cc1` [Compound 162, 4-methyl-N-(4-(5-((4-methylphenyl)sulfonamido)benzo[d]oxazol-2-yl)phenyl)benzenesulfonamide]: in the series with NCI-60 cancer cell panel [1], the GI50 was 1 to 5 µM. Also, in the series with NCI-60 cancer cell panel [2], the “cell growth % NCI cancer cell panel” value is on record as “negative % growth”.
On to `O=C(N/N=C/c1ccc(O)c2ncccc12)c1ccc(O)cc1` [Compound 139, 4-hydroxy-N′-((8-hydroxyquinolin-5-yl)methylene)benzohydrazide], for which the “Average Selectivity Index” value with HCT-116 cells came to 11. Also, the results for the EC50 with HCT-116 cells, with DLD-1 cells and in the series with HT-29 cells were 7.4 µM, 19 µM and 6.3 µM, respectively. The CC50 at 48 h in [3] was above 100 µM; in series [4] it was 56 µM. In the series on NCI-60 cancer cell panel [1], this compound displayed a GI50 of 1 to 5 µM. In addition, the “cell growth % NCI cancer cell panel” value in the series with NCI-60 cancer cell panel [2] is listed as “around 0%”.
In the case of `CCOc1ccc(S(=O)(=O)Nc2ccc(C(=O)N/N=C/c3ccc(O)c4ncccc34)cc2)cc1` [Compound 147, 4-ethoxy-N-(4-(2-((8-hydroxyquinolin-5-yl)methylene)hydrazine-1-carbonyl)phenyl)benzenesulfonamide], in the series on HCT-116 cells, the “Average Selectivity Index” value is 25. For the same compound, the EC50 was found to be 1.8 µM in the series on HCT-116 cells, 6.2 µM in the series with DLD-1 cells and 2.9 µM with HT-29 cells. In addition, the figures for the CC50 at 48 h in [3] and in series [4] were 52 µM and 40 µM, respectively. The GI50 with NCI-60 cancer cell panel [1] was in the range of 0.2 to 0.4 µM. Also, in the series with NCI-60 cancer cell panel [2], the “cell growth % NCI cancer cell panel” value is recorded as “negative % growth”.
As for `COc1ccc(C(=O)N/N=C/c2ccc(O)c3ncccc23)cc1` [Compound 18, N′-((8-hydroxyquinolin-5-yl)methylene)-4-methoxybenzohydrazide], the “Average Selectivity Index” value in the series with HCT-116 cells is given as 5.3. In addition, the EC50 with HCT-116 cells was 7.8 µM; in the series on DLD-1 cells it was 3.8 µM; with HT-29 cells it was 3.5 µM. In addition, the CC50 at 48 h came to 28.4 µM in series [3] and 54.9 µM in series [4]. Further, the CC50 was determined as 28 µM in the series with FHC cells and 55 µM in the series with FHs-74Int cells. Moreover, the IC50 against GroEL/ES and at mHSP60/10 was 0.8 to 9 µM throughout.
